One test deals with RS4;11-BCL-2 F104L cells. The test can be described thus: Cell proliferation assay, engineered RS4;11 cells stably overexpressing BCL-2 F104L (MTS, 168 h). Type of test: cell-based. Conditions: Homo sapiens, read-out: RS4, 11 BCL2-F104L. As to the method:
MTS testing kit was purchased from Promega (Madison, Wis., USA). The RPMI-1640, Fetal bovine serum and Penicillin-Streptomycin were purchased from BI (Biological Industries, Beit Haemek, Israel). Puromycin was purchased from Beyotime (shanghai, China). Dimethyl sulfoxide (DMSO) was purchased from Sigma (St. Louis, Mo., USA). RS4;1l-BCL-2 G101V and RS4;11-BCL-2 F104L cells were cultured in RPM11640 supplemented with 1 ug/mL puromycin, 100 U/mL Penicillin-Streptomycin and 10% FBS.
To investigate whether a compound is able to inhibit the activity of BCL-2 mutation in cells, a mechanism-based assay using engineered cell lines stably overexpressing BCL-2 mutation ([…] and […]) was developed. In this assay, the inhibition of BCL-2 mutation was reflected by the inhibition of cell proliferation of RS4;11-BCL-2 G101V and RS4;11-BCL-2 F104L cells. Cells were plated into 96-well plates at optimized cell density (RS4;11-BCL-2 G101V: 5000 cells/well; RS4;11-BCL-2 F104L: 5000 cells/well). Plates were incubated at 37° C., with 5% CO2 for 4 h. Compounds were serially diluted to the final-concentrations of 10000, 3333.3, 1111.1, 370.4, 123.5, 41.2, 13.7, 4.6 and 1.4 nM and added to the plates. Plates were incubated at 37° C., with 5% CO2 for 168 h. 20 μl MTS was added into each well and the plates were incubated at 37° C., with 5% CO2 exactly for 2 h. The absorbance was measured by a microplate reader at 490 nm. IC50 values were calculated using GraphPad Prism 5.0 software.

The next test deals with Toledo cells. The test can be described thus: Cell proliferation assay, Toledo cells (MTS, 72 h). Type of test: cell-based. To be noted: Homo sapiens, Toledo cells, MTS, read-out: Toledo IC50. The method in brief:
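Toledo cells (30000/well, RPMI-1640 with 10% FBS) were preincubated for 4 h. They were then exposed to nine compound concentrations from 10000 to 1.5 nM for 72 h at 37 °C, 5% CO2. MTS was added for 2 h and absorbance read at 490 nm to give IC50.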

For the compound `CO[C@@H](C)COc1nc2[nH]cc(F)c2cc1Oc1cc(N2CCC3(CC2)CN([C@H]2CCC[C@H]2c2ccccc2C(C)C)C3)ccc1C(=O)NS(=O)(=O)c1cnc(NC[C@H]2CC[C@](C)(O)CC2)c([N+](=O)[O-])c1` (single isomer, unassigned) [Example A-155a, 2-((3-fluoro-6-((S)-2-methoxypropoxy)-1H-pyrrolo[2,3-b]pyridin-5-yl)oxy)-N-((6-(((1r,4r)-4-hydroxy-4-methylcyclohexyl)methyl)amino)-5-nitropyridin-3-yl)sulfonyl)-4-(2-((1S,2S or 1R,2R)-2-(2-isopropylphenyl)cyclo-pentyl)-2,7-diazaspiro[3.5]nonan-7-yl) benzamide], in the test on RS4;11-BCL-2 F104L cells, the IC50 came out at 27 nM.

For the compound `CO[C@@H](C)COc1nc2[nH]cc(F)c2cc1Oc1cc(N2CCC3(CC2)CN([C@H]2CCC[C@H]2c2ccccc2C(C)C)C3)ccc1C(=O)NS(=O)(=O)c1cc2c(c([N+](=O)[O-])c1)N[C@@H]([C@H]1CC[C@](C)(O)CC1)CO2` (single isomer, unassigned) [Example D-241a, 2-((3-fluoro-6-((S)-2-methoxypropoxy)-1H-pyrrolo[2,3-b]pyridin-5-yl)oxy)-N-((S)-3-((1r,4S)-4-hydroxy-4-methylcyclohexyl)-5-nitro-3,4-dihydro-2H-benzo[b][1,4]oxazin-7-yl)sulfonyl)-4-(2-((1S,2S or 1R,2R)-2-(2-isopropylphenyl)cyclopentyl)-2,7-diazaspiro[3.5]nonan-7-yl)benzamide], the IC50 in the test on RS4;11-BCL-2 F104L cells was 11 nM.

As to `CC(C)c1ccccc1[C@@H]1CCC[C@@H]1N1CC2(CCN(c3ccc(C(=O)NS(=O)(=O)c4cnc(NC[C@H]5CC[C@](C)(O)CC5)c([N+](=O)[O-])c4)c(Oc4cc5cc[nH]c5nc4F)c3)CC2)C1` (single isomer, unassigned) [Example A-158, 2-((6-fluoro-1H-pyrrolo[2,3-b]pyridin-5-yl)oxy)-N-((6-((((1r,4r)-4-hydroxy-4-methylcyclohexyl)methyl)amino)-5-nitropyridin-3-yl)sulfonyl)-4-(2-((1S,2S or 1R,2R)-2-(2-isopropylphenyl)cyclo-pentyl)-2,7-diazaspiro[3.5]nonan-7-yl) benzamide], the IC50 in the test with Toledo cells was 1 nM; in the test with RS4;11-BCL-2 F104L cells, 8 nM.

Consider `CCc1nc2[nH]cc(F)c2cc1Oc1cc(N2CCC3(CC2)CN([C@H]2CCC[C@H]2c2ccccc2C(C)C)C3)ccc1C(=O)NS(=O)(=O)c1cc2c(c([N+](=O)[O-])c1)N[C@@H]([C@H]1CC[C@](C)(O)CC1)CO2` (single isomer, unassigned) [Example D-239, 2-((6-ethyl-3-fluoro-1H-pyrrolo [2,3-b]pyridin-5-yl)oxy)-N-(((S)-3-((1r,4S)-4-hydroxy-4-methylcyclohexyl)-5-nitro-3,4-dihydro-2H-benzo[b][1,4]oxazin-7-yl)sulfonyl)-4-(2-((1S,2S or 1R,2R)-2-(2-isopropylphenyl)cyclopentyl)-2,7-diazaspiro[3.5]nonan-7-yl)benzamide], for which the IC50 in the test with RS4;11-BCL-2 F104L cells was found to be 5 nM.

Regarding `CC(C)c1ccccc1[C@@H]1CCCN1C1CC2(CCN(c3ccc(C(=O)NS(=O)(=O)c4cc5c(c([N+](=O)[O-])c4)N[C@@H]([C@H]4CC[C@](C)(O)CC4)CO5)c(Oc4cc5cc[nH]c5nc4OC[C@H]4COCCO4)c3)CC2)C1` (single isomer, unassigned) [Example D-252, 2-((6-(((R)-1,4-dioxan-2-yl)methoxy)-1H-pyrrolo[2,3-b]pyridin-5-yl)oxy)-N-(((S)-3-((1r,4S)-4-hydroxy-4-methylcyclohexyl)-5-nitro-3,4-dihydro-2H-benzo[b][1,4]oxazin-7-yl)sulfonyl)-4-(2-((R or S)-2-(2-isopropylphenyl)pyrrolidin-1-yl)-7-azaspiro[3.5]nonan-7-yl)benzamide], the IC50 in the test with Toledo cells and in the test on RS4;11-BCL-2 F104L cells was 1 nM throughout.

Consider `CCc1nc2[nH]cc(F)c2cc1Oc1cc(N2CCC3(CC2)CN([C@H]2CCC[C@H]2c2ccccc2C(C)C)C3)ccc1C(=O)NS(=O)(=O)c1ccc(NC[C@H]2CC[C@](C)(O)CC2)c([N+](=O)[O-])c1` (single isomer, unassigned) [Example D-235, 2-((6-ethyl-3-fluoro-1H-pyrrolo [2,3-b]pyridin-5-yl)oxy)-N-((4-(((1r,4r)-4-hydroxy-4-methylcyclohexyl)methyl)amino)-3-nitrophenyl) sulfonyl)-4-(2-((1S,2S or 1R,2R)-2-(2-isopropylphenyl)cyclopentyl)-2,7-diazaspiro[3.5] nonan-7-yl)benzamide], for which the IC50 in the test on RS4;11-BCL-2 F104L cells amounted to 10 nM.

`CC(C)c1ccccc1[C@@H]1CCC[C@@H]1N1CC2(CCN(c3ccc(C(=O)NS(=O)(=O)c4ccc(NC[C@H]5CC[C@](C)(O)CC5)c([N+](=O)[O-])c4)c(Oc4cc5cc[nH]c5nc4F)c3)CC2)C1` (single isomer, unassigned) [Example D-116, 2-((6-fluoro-1H-pyrrolo[2,3-b]pyridin-5-yl)oxy)-N-((4-((1r,4r)-4-hydroxy-4-methylcyclohexyl)methyl)amino)-3-nitrophenyl) sulfonyl)-4-(2-((1S,2S or 1R,2R)-2-(2-isopropylphenyl) cyclopentyl)-2,7-diazaspiro[3.5] nonan-7-yl)benzamide]: the IC50 with Toledo cells and with RS4;11-BCL-2 F104L cells was 1 nM each time.

As for `CCOc1nc2[nH]cc(F)c2cc1Oc1cc(N2CCC3(CC2)CN([C@H]2CCC[C@H]2c2ccccc2C(C)C)C3)ccc1C(=O)NS(=O)(=O)c1ccc(NC[C@H]2CC[C@](C)(O)CC2)c([N+](=O)[O-])c1` (single isomer, unassigned) [Example D-110, 2-((6-ethoxy-3-fluoro-1H-pyrrolo [2,3-b]pyridin-5-yl)oxy)-N-((4-((((1r,4r)-4-hydroxy-4-methylcyclohexyl)methyl)amino)-3-nitrophenyl)sulfonyl)-4-(2-((1S,2S or 1R,2R)-2-(2-isopropylphenyl)cyclopentyl)-2,7-diazaspiro[3.5]nonan-7-yl)benzamide], the IC50 was 1 nM in the test on Toledo cells and 15 nM with RS4;11-BCL-2 F104L cells.

As for `CO[C@H](C)COc1nc2[nH]cc(F)c2cc1Oc1cc(N2CCC3(CC2)CC(N2CCC[C@H]2c2ccccc2C(C)C)C3)ccc1C(=O)NS(=O)(=O)c1cc2c(c([N+](=O)[O-])c1)N[C@@H]([C@H]1CC[C@](C)(O)CC1)CO2` (single isomer, unassigned) [Example D-243b, 2-((3-fluoro-6-((R)-2-methoxypropoxy)-1H-pyrrolo[2,3-b]pyridin-5-yl)oxy)-N-(((S)-3-((1r,4S)-4-hydroxy-4-methylcyclohexyl)-5-nitro-3,4-dihydro-2H-benzo[b][1,4]oxazin-7-yl)sulfonyl)-4-(2-((R or S)-2-(2-isopropylphenyl)pyrrolidin-1-yl)-7-azaspiro[3.5]nonan-7-yl) benzamide], the IC50 in the test with RS4;11-BCL-2 F104L cells turned out to be 20 nM.

For the compound `CO[C@@H](C)COc1nc2[nH]cc(F)c2cc1Oc1cc(N2CCC3(CC2)CC(N2CCC[C@H]2c2ccccc2C(C)C)C3)ccc1C(=O)NS(=O)(=O)c1cc2c(c([N+](=O)[O-])c1)N[C@@H]([C@H]1CC[C@](C)(O)CC1)CO2` (single isomer, unassigned) [Example D-243a, 2-((3-fluoro-6-((S)-2-methoxypropoxy)-1H-pyrrolo[2,3-b]pyridin-5-yl)oxy)-N-(((S)-3-((1r,4S)-4-hydroxy-4-methylcyclohexyl)-5-nitro-3,4-dihydro-2H-benzo[b][1,4]oxazin-7-yl)sulfonyl)-4-(2-((R or S)-2-(2-isopropylphenyl)pyrrolidin-1-yl)-7-azaspiro[3.5]nonan-7-yl) benzamide], the IC50 with RS4;11-BCL-2 F104L cells came to 13 nM.

As for `CCc1nc2[nH]cc(F)c2cc1Oc1cc(N2CCC3(CC2)CN([C@H]2CCC[C@H]2c2ccccc2C(C)C)C3)ccc1C(=O)NS(=O)(=O)c1cnc(NC[C@H]2CC[C@](C)(O)CC2)c([N+](=O)[O-])c1` (single isomer, unassigned) [Example A-157, 2-((6-ethyl-3-fluoro-1H-pyrrolo[2,3-b]pyridin-5-yl)oxy)-N-((6-((((1r,4r) 4-hydroxy-4-methylcyclohexyl)methyl)amino)-5-nitropyridin-3-yl)sulfonyl)-4-(2-((1S,2S or 1R,2R)-2-(2-isopropylphenyl)cyclo-pentyl)-2,7-diazaspiro[3.5]nonan-7-yl) benzamide], the IC50 with RS4;11-BCL-2 F104L cells was determined as 23 nM.

`CCc1nc2[nH]cc(F)c2cc1Oc1cc(N2CCC3(CC2)CC(N2CCC[C@H]2c2ccccc2C(C)C)C3)ccc1C(=O)NS(=O)(=O)c1cc2c(c([N+](=O)[O-])c1)N[C@@H]([C@H]1CC[C@](C)(O)CC1)CO2` (single isomer, unassigned) [Example D-245, 2-((6-ethyl-3-fluoro-1H-pyrrolo [2,3-b]pyridin-5-yl)oxy)-N-(((S)-3-((1r,4S)-4-hydroxy-4-methylcyclohexyl)-5-nitro-3,4-dihydro-2H-benzo[b][1,4]oxazin-7-yl)sulfonyl)-4-(2-((R or S)-2-(2-isopropylphenyl)pyrrolidin-1-yl)-7-azaspiro[3.5]nonan-7-yl)benzamide]: the IC50 with RS4;11-BCL-2 F104L cells was 15 nM.

Values taken from US20230159527A1, “COMPOUNDS AS BCL-2 INHIBITORS” (Fochon Pharmaceuticals, Ltd., priority 2020, published 2023).
